Data: PubChem BioAssay AID1383 (University of Pittsburgh Molecular Library Screening Center, 2008)
Calls of active or inactive are those of the source. How the calls were made is not given here.

Molecular target: Serine/threonine-protein kinase PLK1 (Homo sapiens) (UniProt P53350)
Experiment: PLK1 kinase inhibition, dose response, selectivity assay for PKD inhibitor project, biochemical (AID 1383)
Settings: counterscreen

Chain of Serine/threonine-protein kinase PLK1 (Homo sapiens) (P53350 whole entry, looked up): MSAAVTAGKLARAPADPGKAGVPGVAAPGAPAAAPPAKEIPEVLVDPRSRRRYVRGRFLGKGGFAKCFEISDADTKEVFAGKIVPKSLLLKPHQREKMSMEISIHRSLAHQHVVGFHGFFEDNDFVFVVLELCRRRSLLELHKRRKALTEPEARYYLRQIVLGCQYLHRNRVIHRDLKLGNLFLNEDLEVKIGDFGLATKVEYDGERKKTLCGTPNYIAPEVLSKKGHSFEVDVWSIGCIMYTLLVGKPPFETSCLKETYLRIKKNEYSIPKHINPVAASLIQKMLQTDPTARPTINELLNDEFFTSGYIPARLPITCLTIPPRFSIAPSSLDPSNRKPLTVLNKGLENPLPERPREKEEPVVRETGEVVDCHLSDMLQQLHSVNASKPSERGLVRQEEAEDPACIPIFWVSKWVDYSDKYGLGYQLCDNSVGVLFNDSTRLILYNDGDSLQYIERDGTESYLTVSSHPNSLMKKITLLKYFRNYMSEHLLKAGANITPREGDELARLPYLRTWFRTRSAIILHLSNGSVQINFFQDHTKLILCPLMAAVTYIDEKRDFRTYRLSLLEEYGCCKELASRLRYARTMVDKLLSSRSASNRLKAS

## Clc1cncc(Cl)c1N/N=C/c1ccncc1
  IC50: > 50 µM (inactive)
